Patent US11155597B2, “Relaxin1 derived peptides for use in immunotherapy” (Immatics Biotechnologies GmbH, priority 2015, dated 2021)

What follows are substances tested on CD8+ T cells of healthy HLA-A*02+ donors (assay: In vitro immunogenicity: T-cell priming with aAPCs loaded with peptide/MHC and anti-CD28, pMHC multimer readout). Conditions: HLA-A*02 restricted peptides; Table 6B.
Type: cell-based, human
Description: In order to obtain information regarding the immunogenicity of the TUMAPs of the present invention, the inventors performed investigations using an in vitro T-cell priming assay based on repeated stimulations of CD8+ T cells with artificial antigen presenting cells (aAPCs) loaded with peptide/MHC complexes and anti-CD28 antibody.
In order to perform in vitro stimulations by artificial antigen presenting cells loaded with peptide-MHC complex (pMHC) and anti-CD28 antibody, the inventors first isolated CD8+ T cells from fresh HLA-A*02 leukapheresis products via positive selection using CD8 microbeads (Miltenyi Biotec, Bergisch-Gladbach, Germany) of healthy donors obtained from the University clinics Mannheim, Germany, after informed consent. PBMCs and isolated CD8+ lymphocytes were incubated in T-cell medium (TCM) until use consisting of RPMI-Glutamax (Invitrogen, Karlsruhe, Germany) supplemented with 10% heat inactivated human AB serum (PAN-Biotech, Aidenbach, Germany), 100 U/ml Penicillin/100 μg/ml Streptomycin (Cambrex, Cologne, Germany), 1 mM sodium pyruvate (CC Pro, Oberdorla, Germany), 20 μg/ml Gentamycin (Cambrex). 2.5 ng/ml IL-7 (PromoCell, Heidelberg, Germany) and 10 U/ml IL-2 (Novartis Pharma, Nürnberg, Germany) were also added to the TCM at this step. Generation of pMHC/anti-CD28 coated beads, T-cell stimulations and readout was performed in a highly defined in vitro system using four different pMHC molecules per stimulation condition and 8 different pMHC molecules per readout condition.
The purified co-stimulatory mouse IgG2a anti human CD28 Ab 9.3 (Jung et al., 1987) was chemically biotinylated using Sulfo-N-hydroxysuccinimidobiotin as recommended by the manufacturer (Perbio, Bonn, Germany). Beads used were 5.6 μm diameter streptavidin coated polystyrene particles (Bangs Laboratories, Illinois, USA).
pMHC used for positive and negative control stimulations were A*0201/MLA-001 (peptide […] (SEQ ID NO. 289) from modified Melan-A/MART-1) and A*0201/DDX5-001 ([…] from DDX5, SEQ ID NO. 290), respectively.
800.000 beads/200 μl were coated in 96-well plates in the presence of 4×12.5 ng different biotin-pMHC, washed and 600 ng biotin anti-CD28 were added subsequently in a volume of 200 μl. Stimulations were initiated in 96-well plates by co-incubating 1×10^6 CD8+ T cells with 2×10^5 washed coated beads in 200 μl TCM supplemented with 5 ng/ml IL-12 (PromoCell) for 3 days at 37° C. Half of the medium was then exchanged by fresh TCM supplemented with 80 U/ml IL-2 and incubating was continued for 4 days at 37° C. This stimulation cycle was performed for a total of three times. For the pMHC multimer readout using 8 different pMHC molecules per condition, a two-dimensional combinatorial coding approach was used as previously described (Andersen et al., 2012) with minor modifications encompassing coupling to 5 different fluorochromes. Finally, multimeric analyses were performed by staining the cells with Live/dead near IR dye (Invitrogen, Karlsruhe, Germany), CD8-FITC antibody clone SK1 (BD, Heidelberg, Germany) and fluorescent pMHC multimers. For analysis, a BD LSRII SORP cytometer equipped with appropriate lasers and filters was used. Peptide specific cells were calculated as percentage of total CD8+ cells. Evaluation of multimeric analysis was done using the FlowJo software (Tree Star, Oregon, USA). In vitro priming of specific multimer+CD8+ lymphocytes was detected by comparing to negative control stimulations.
Exemplary flow cytometry results after TUMAP-specific multimer staining for peptide of the invention are shown in FIG. 3 together with corresponding negative controls.

| Substance | Wells positive [%] |
| --- | --- |
| 233 (SLFESLEYL; listed as Homo sapiens) [compound 233] | + (<20% = +) |
| 89 (SLAETIFIV; listed as Homo sapiens) [compound 89] | + (<20% = +) |
| 246 (ALAGIVTNV; listed as Homo sapiens) [compound 246] | + (<20% = +) |
| 66 (AMFPDTIPRV; listed as Homo sapiens) [compound 66] | + (<20% = +) |
| 29 (KMISAIPTL; listed as Homo sapiens) [compound 29] | + (<20% = +) |
| 260 (ALNESLVEC; listed as Homo sapiens) [compound 260] | + (<20% = +) |
| 9 (SLITGQDLLSV; listed as Homo sapiens) [compound 9] | + (<20% = +) |
| 263 (SIIEYLPTL; listed as Homo sapiens) [compound 263] | + (<20% = +) |
| 14 (YTFSGDVQL; listed as Homo sapiens) [compound 14] | + (<20% = +) |
| 267 (YLLDMPLWYL; listed as Homo sapiens) [compound 267] | + (<20% = +) |
| 264 (TLHDQVHLL; listed as Homo sapiens) [compound 264] | + (<20% = +) |
| 236 (KMSELQTYV; listed as Homo sapiens) [compound 236] | + (<20% = +) |
| 255 (FLMKNSDLYGA; listed as Homo sapiens) [compound 255] | + (<20% = +) |
| 257 (KLIDHQGLYL; listed as Homo sapiens) [compound 257] | + (<20% = +) |
| 157 (ILQDGQFLV; listed as Homo sapiens) [compound 157] | + (<20% = +) |
| 121 (ALYVQAPTV; listed as Homo sapiens) [compound 121] | + (<20% = +) |
| 254 (ALGDKFLLRV; listed as Homo sapiens) [compound 254] | + (<20% = +) |
| 17 (GLLPSAESIKL; listed as Homo sapiens) [compound 17] | + (<20% = +) |
| 35 (VIIKGLEEI; listed as Homo sapiens) [compound 35] | + (<20% = +) |
| 77 (ALYGNVQQV; listed as Homo sapiens) [compound 77] | + (<20% = +) |
| 101 (SLLEVNEASSV; listed as Homo sapiens) [compound 101] | + (<20% = +) |
| 4 (VLFGELPAL; listed as Homo sapiens) [compound 4] | + (<20% = +) |
| 102 (GLYPVTLVGV; listed as Homo sapiens) [compound 102] | + (<20% = +) |
| 242 (KLQEEIPVL; listed as Homo sapiens) [compound 242] | + (<20% = +) |
| 50 (ILLSVLHQL; listed as Homo sapiens) [compound 50] | + (<20% = +) |
| 97 (KLFEKSTGL; listed as Homo sapiens) [compound 97] | + (<20% = +) |
| 27 (GLLGKVTSV; listed as Homo sapiens) [compound 27] | + (<20% = +) |

Same assay, conditions: percentage of positive donors; Table 6A

| Substance | in vitro immunogenicity: donors |
| --- | --- |
| 288 (SLYKGLLSV; listed as Homo sapiens) [compound 288] | ++++ (> = 70% = ++++) |

Same assay, conditions: percentage of positive wells; Table 6A

| Substance | in vitro immunogenicity: wells |
| --- | --- |
| 287 (KIQEILTQV; listed as Homo sapiens) [compound 287] | + (<20% = +) |
